From the supplement of paper PMC11451515

What was measured:
Conditions in all cases: 48 h
P12-Ichikawa = experiment: AUC of viability dose-response curve (% viability x log10 dose units); higher = less sensitive
How it was run: (§1)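 Area under the curve was integrated by trapezoidal rule from a log-logistic fit of normalised viability, with curves exceeding full viability scaled and quality-control failures removed. The fit had four parameters over log10 doses. Viability came from CellTiter-Glo One luminescence, normalised per plate to DMSO and cell-free wells, after leukemia cells adapted to each medium (500 or 1000 cells/well, 1536-well plates) were exposed to library compounds in DMSO for 48 h at 37°C. The 11 threefold doses ran from 47 μM to 0.79 nM.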

NOMO1 = experiment: as above
How it was run: as §1

SEM cells [1] = experiment: as above
How it was run: as §1

SEM cells [2] = experiment: cell viability relative to DMSO control; higher = less cytotoxic
How it was run: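 NOMO1 or SEM cells were plated at 500 cells/well and P12-Ichikawa cells at 1000 cells/well in 1536-well plates (5 μl), after each leukemia line had been adapted for at least four passages in each medium. Pin dosing delivered library compounds in DMSO at 11 threefold concentrations, 47 μM to 0.79 nM. CellTiter-Glo One luminescence was read after 48 h at 37°C. Viability is reported as a per-plate percentage of DMSO wells, with cell-free wells as background.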

[3] = RPMI 5 mM glucose + 10% dialyzed FBS
[4] = HPLM + 10% dialyzed FBS, 0.000781 µM
[5] = HPLM + 10% dialyzed FBS, 0.00234 µM
[6] = HPLM + 10% dialyzed FBS, 0.00702 µM
[7] = HPLM + 10% dialyzed FBS, 0.0211 µM
[8] = HPLM + 10% dialyzed FBS, 0.0632 µM
[9] = HPLM + 10% dialyzed FBS, 0.19 µM
[10] = HPLM + 10% dialyzed FBS, 0.569 µM
[11] = HPLM + 10% dialyzed FBS, 1.71 µM
[12] = HPLM + 10% dialyzed FBS, 5.12 µM
[13] = HPLM + 10% dialyzed FBS, 15.4 µM
[14] = HPLM + 10% dialyzed FBS, 46.1 µM

| SMILES | AUC of viability dose-response curve (P12-Ichikawa; HPLM + 10% dialyzed FBS) | AUC of viability dose-response curve (P12-Ichikawa; RPMI 5 mM glucose + 10% FBS) | AUC of viability dose-response curve (P12-Ichikawa; [3]) | AUC of viability dose-response curve (NOMO1; HPLM + 10% dialyzed FBS) | AUC of viability dose-response curve (NOMO1; RPMI 5 mM glucose + 10% FBS) | AUC of viability dose-response curve (NOMO1; [3]) | AUC of viability dose-response curve (SEM cells [1]; HPLM + 10% dialyzed FBS) | AUC of viability dose-response curve (SEM cells [1]; RPMI 5 mM glucose + 10% FBS) | AUC of viability dose-response curve (SEM cells [1]; [3]) | cell viability (SEM cells [2]; [4]) | cell viability (SEM cells [2]; [5]) | cell viability (SEM cells [2]; [6]) | cell viability (SEM cells [2]; [7]) | cell viability (SEM cells [2]; [8]) | cell viability (SEM cells [2]; [9]) | cell viability (SEM cells [2]; [10]) | cell viability (SEM cells [2]; [11]) | cell viability (SEM cells [2]; [12]) | cell viability (SEM cells [2]; [13]) | cell viability (SEM cells [2]; [14]) | also measured |
| --- | --- | --- | --- | --- | --- | --- | --- | --- | --- | --- | --- | --- | --- | --- | --- | --- | --- | --- | --- | --- | --- |
| N=C1S/C(=C\c2ccc(-c3ccc4c(c3)C(=O)NC4=O)o2)C(=O)N1c1ccc(Br)cc1 | 452 | 443 | 448 | 444 | 464 | 459 | 453 | 365 | 458 | – | – | – | – | – | – | – | – | – | – | – | – |
| CN(C)CC(=O)N1CCC(CC1)C2=CC=C(NC(=O)C3=NC(=C[NH]3)C#N)C(=C2)\C4=C\CCCC4 | 467 | 463 | 443 | 458 | 454 | 456 | 359 | 358 | 348 | – | – | – | – | – | – | – | – | – | – | – | – |
| C/C(O)=C(\C#N)C(=O)Nc1ccc(C(F)(F)F)cc1 | 454 | 455 | 432 | 457 | 470 | 436 | 437 | 430 | 431 | – | – | – | – | – | – | – | – | – | – | – | – |
| CC1Cc2ccccc2N1NC(=O)c1ccc(Cl)c([S+](N)(=O)[O-])c1 (stereo not drawn) | 463 | 473 | 452 | 467 | 445 | 434 | 474 | 426 | 472 | 111% | 108% | 104% | 106% | 94.3% | 113% | 128% | 103% | 112% | 116% | 97.9% | cell viability (SEM cells [2]; RPMI 5 mM glucose + 10% dialyzed FBS, 0.000781 µM): 107%; cell viability (SEM cells [2]; RPMI 5 mM glucose + 10% dialyzed FBS, 0.00234 µM): 109%; cell viability (SEM cells [2]; RPMI 5 mM glucose + 10% dialyzed FBS, 0.00702 µM): 117%; cell viability (SEM cells [2]; RPMI 5 mM glucose + 10% dialyzed FBS, 0.0211 µM): 106%; cell viability (SEM cells [2]; RPMI 5 mM glucose + 10% dialyzed FBS, 0.0632 µM): 102%; cell viability (SEM cells [2]; RPMI 5 mM glucose + 10% dialyzed FBS, 0.19 µM): 134%; cell viability (SEM cells [2]; RPMI 5 mM glucose + 10% dialyzed FBS, 0.569 µM): 100%; cell viability (SEM cells [2]; RPMI 5 mM glucose + 10% dialyzed FBS, 1.71 µM): 97%; cell viability (SEM cells [2]; RPMI 5 mM glucose + 10% dialyzed FBS, 5.12 µM): 113%; cell viability (SEM cells [2]; RPMI 5 mM glucose + 10% dialyzed FBS, 15.4 µM): 111%; cell viability (SEM cells [2]; RPMI 5 mM glucose + 10% dialyzed FBS, 46.1 µM): 107% |
| COc1ccc([S+](=O)([O-])Nc2cc(-c3c(O)ccc4ccccc34)c(O)c3ccccc23)cc1 | 429 | 439 | 432 | 435 | 453 | 462 | 408 | 383 | 389 | 96.8% | 111% | 134% | 115% | 101% | 116% | 101% | 97% | 86.4% | 43.4% | 6.74% | cell viability (SEM cells [2]; RPMI 5 mM glucose + 10% FBS, 0.000781 µM): 114%; cell viability (SEM cells [2]; RPMI 5 mM glucose + 10% FBS, 0.00234 µM): 115%; cell viability (SEM cells [2]; RPMI 5 mM glucose + 10% FBS, 0.00702 µM): 124%; cell viability (SEM cells [2]; RPMI 5 mM glucose + 10% FBS, 0.0211 µM): 131%; cell viability (SEM cells [2]; RPMI 5 mM glucose + 10% FBS, 0.0632 µM): 119%; cell viability (SEM cells [2]; RPMI 5 mM glucose + 10% FBS, 0.19 µM): 127%; cell viability (SEM cells [2]; RPMI 5 mM glucose + 10% FBS, 0.569 µM): 115%; cell viability (SEM cells [2]; RPMI 5 mM glucose + 10% FBS, 1.71 µM): 88.7%; cell viability (SEM cells [2]; RPMI 5 mM glucose + 10% FBS, 5.12 µM): 78.6%; cell viability (SEM cells [2]; RPMI 5 mM glucose + 10% FBS, 15.4 µM): 18.4%; cell viability (SEM cells [2]; RPMI 5 mM glucose + 10% FBS, 46.1 µM): 5.19% |
| F\C1=C\NC(=O)NC1=O | 405 | 435 | 413 | 414 | 437 | 422 | 407 | 410 | 412 | – | – | – | – | – | – | – | – | – | – | – | – |
